# Measurements: patent US20230010803A1, “TREATMENTS FOR DIFFUSE LARGE B-CELL LYMPHOMA” (Janssen Pharmaceutica NV, priority 2021, published 2023)
# Experiments:
# non-GCB DLBCL [1] = conditions: cited from earlier work
# non-GCB DLBCL [2] = test: Phoenix phase III randomized trial of R-CHOP with or without ibrutinib, analysed by LymphGen genetic subtype; format: in vivo, human; conditions: younger patients (age≤60) with N1 DLBCL (n=13)
compound,measurement,setting,value
C=CC(=O)N1CCC[C@@H](n2nc(-c3ccc(Oc4ccccc4)cc3)c3c(N)ncnc32)C1 [ibrutinib],toxicity compared to the placebo arm,non-GCB DLBCL [1]; older patients on the ibrutinib arm,significantly more toxicity
same,toxicity of addition of ibrutinib to R-CHOP,non-GCB DLBCL [1]; younger patients with non-GCB DLBCL,did not significantly increase toxicity
same,3-year EFS,non-GCB DLBCL [2],100%
same,3-year OS,non-GCB DLBCL [2],100%
